Laboratory results taken from paper PMC8780964, “Evaluation of the Pharmacokinetics of the Pancreastatin Inhibitor PSTi8 Peptide in Rats: Integration of In Vitro and In Vivo Findings” (Molecules, 2022).
Entries after “also recorded” stand apart in the source; their conditions may differ. Ends that are not written are not given here.

What was measured:
[1] = Equilibrium solubility in SGF and SIF; type: physicochemical
Description: The solubility of PSTi8 peptide was conducted using the equilibrium solubility method in SGF (pH 1.2) and SIF (pH 7.4). A total of 50 mg of PSTi8 was added to silanized glass vials containing 1 mL of buffer, and incubated for 1 h at 37 °C in a shaking water bath to attain equilibrium. After incubation, the samples were centrifuged for 10 min at 12,000 g, and supernatant was processed through SPE procedure and used for LC-MS/MS analysis.

Plasma stability study = type: in vitro ADME
Description: Fresh rat plasma (1 mL) was used and pre-incubated in a shaking water bath at 37 °C for 10 min. PSTi8 was added to rat plasma at a final concentration of 1 or 5 µM and then incubated for […] at 37 °C in a shaking water bath. A total of 100 µL samples were aliquoted at predetermined time points (0, 5, 15, 30, 60, 90, 120 and 240 min), followed by SPE processing and analyzed using the validated LC-MS/MS method. The plasma stability was determined as the % drug remaining at different time points relative to the drug at 0 min [19].

[2] = Microsomal metabolic stability study; type: in vitro ADME, SD rats; conditions: 5 µM
Description: RLM was prepared from SD rats from our lab, as previously reported. In vitro metabolic stability of PSTi8 was determined using RLM. The reaction milieu was prepared by adding 50 mM Tris buffer (pH 7.4), 40 mM MgCl2 pre-incubated at 37 °C along with RLM (0.5 mg/mL) and spiked at a concentration (5 µM) of PSTi8. The reaction was started with NADPH (1 mM) and without NADPH (negative control using Tris buffer). A total of 100 µL samples were collected at 0, 5, 15, 30, 45 and 60 min, and the reaction was quenched with liquid nitrogen. Samples were processed with the SPE procedure and analyzed using the LC-MS/MS method. Negative control was used to assess the peptide stability in the reaction milieu and the positive control (Testosterone, 25 µM) was incubated to obtain the microsomal activity.

[3] = Plasma protein binding, modified charcoal adsorption method; type: in vitro ADME; conditions: rat plasma
Description: The protein binding study of the PSTi8 peptide was conducted in rat plasma using the modified charcoal adsorption method. The suspension of dextran-coated charcoal (0.66%) was prepared in the DPBS buffer (pH 7.4) and stirred overnight (18 h), before the study. PSTi8 (2 µM and 5 µM) was prepared in 2.5 mL rat plasma and pre-incubated at 37 ± 0.5 °C for 15 min in a shaking water bath. The exact volume of the charcoal suspension, the same as the plasma, was centrifuged at 3000 g for 15 min to separate DPBS. The supernatant was decanted and the pre-incubated plasma was added to the charcoal pellet-containing tubes. Plasma-containing charcoal tubes were incubated under continuous stirring up to 4 h. A total of 200 µL samples were collected at the time points of 0, 5, 10, 20, 30, 45, 60, 90, 120 and 180 min, and then centrifuged at 11,000 g for 2.5 min. A total of 100 µL supernatant of the centrifuged sample was separated, extracted using SPE and analyzed with LC-MS/MS. The % peptide remaining in the supernatant plasma sample versus time points data was evaluated using the i.v. bolus two-compartment analysis model on Phoenix 6.3 WinNonlin (Pharsight Corporation, Saint Louis, MO, USA). The model is defined by the bi-exponential Equation (1):(1) B(t)=A1exp(−αt)+A2exp(−βt) where B(t) % is the bound peptide remaining at time t and where A1, A2, α and β are constants.

[4] = Stability in rat plasma in different storage conditions (bioanalytical validation); type: in vitro ADME
Description: A QTRAP-4000 AB Sciex (SCIEX, Concord, ON, Canada) mass spectrometer using an electrospray ionization source tandem with the Shimadzu UFLC system was utilized for the quantitative analysis. Quantification was performed for PSTi8 and IS with positive ionization mode, using prominent selected reaction monitoring transitions as 607.80/771.20 and 342.20/229.10 m/z, respectively. The chromatographic separation of PSTi8 and IS was accomplished on a Phenomenex Aqua 5µ 125A (250 × 4.6 mm) column using an isocratic mode of mobile phase (methanol:0.1 % formic acid, 50:50 % v/v) with 0.4 mL/min flow rate. The analysis run time was 10 min and the injection volume was 10 μL for each sample. Analyst 1.6 software was used to regulate the LC-MS/MS instrument and for data quantification. The plasma sample extraction involved the SPE procedure using MAX cartridges, as previously described. The LC-MS/MS bioanalytical assay of PSTi8 peptide was validated in rat plasma as per the USFDA bioanalytical method validation guidance. The bioanalytical method development and validation of PSTi8 in mice plasma was recently reported. The bioanalytical validation and stability studies were conducted in rat plasma, as described earlier.

[5] = set-up: method as in PMID 31891874; conditions: i.p., mice; cited from earlier work
in vivo [6] = conditions: male, SD, rat, 5 mg/kg
Description: Rats were distributed into three groups and each group contained 6 animals.
(§1) After dosing in rats, blood (250 µL) samples were collected in EDTA containing microcentrifuge tubes at 0.08, 0.16, 0.33, 0.50, 0.75, 1, 2, 3, 4, 5 and 6 h time points. Plasma was separated from the blood after centrifugation and kept in a −80 °C freezer for LC-MS/MS analysis.
The i.p. and s.c. PK were best described by a one-compartment first-order PK model without lag time. The i.v. PK was well explained by a one-compartment model with a bolus input and first-order elimination rate. The PK parameters include the elimination constant (K10), absorption constant (K01), Tmax, elimination half-life (K10-HL), absorption half-life (K01-HL), Cmax, AUC (stands for model derived AUC0-∞), CL/F, mean residence time (MRT) and Vd/F. The bioavailability of PSTi8 was determined using the ratio between the AUC from i.p. or s.c. and i.v. routes, after normalizing the dose.

in vivo [7] = conditions: male, SD, rat, ip
Description: (§2) Male SD rats were utilized in this study and distributed into two groups (each group contained 6 animals). To each group, PSTi8 was administered i.p. at a dose of 10 and 20 mg/kg in rats.
as §1
(§3) The PK parameters of PSTi8 were estimated with a one-compartmental PK model in Phoenix WinNonlin. […] The PK parameters include the elimination constant (K10), absorption constant (K01), Tmax, elimination half-life (K10-HL), absorption half-life (K01-HL), Cmax, AUC (stands for model derived AUC0-∞), CL/F, mean residence time (MRT) and Vd/F. The bioavailability of PSTi8 was determined using the ratio between the AUC from i.p. or s.c. and i.v. routes, after normalizing the dose.

in vivo [8] = conditions: female, SD, rat, ip, 5 mg/kg
Description: Female SD rats were utilized and distributed into two groups (each group contained 6 animals). To each group, a 5 mg/kg dose of PSTi8 was administered i.v. and i.p. for PK determination.
as §1
The PK parameters of PSTi8 were estimated with a one-compartmental PK model in Phoenix WinNonlin. The i.p. and s.c. PK were best described by a one-compartment first-order PK model without lag time. The i.v. PK was well explained by a one-compartment model with a bolus input and first-order elimination rate. The PK parameters include the elimination constant (K10), absorption constant (K01), Tmax, elimination half-life (K10-HL), absorption half-life (K01-HL), Cmax, AUC (stands for model derived AUC0-∞), CL/F, mean residence time (MRT) and Vd/F. The bioavailability of PSTi8 was determined using the ratio between the AUC from i.p. or s.c. and i.v. routes, after normalizing the dose.

C57Bl/6 mice = conditions: mouse, in vivo; cited from earlier work
[9] = Blood–plasma partitioning study (KRBC/PL)
Description: Fresh blood was collected from SD rats and used for the blood–plasma partitioning study. The blood was pre-incubated in a shaking water bath for 10 min at 37 ± 0.5 °C. […] During the study, the fresh rat plasma was separated from the same batch of whole blood. During the incubation time course, 250 µL aliquots of incubated whole blood samples were collected at different time points (0, 15, 30 and 60 min) and centrifuged at 10,000 g for 5 min at RT to obtain the plasma. At each time point, 100 µL aliquot of the reference plasma sample was collected. Both, 100 µL aliquot of generated plasma and reference plasma were processed and analyzed using the LC-MS/MS method. For the determination of hematocrit (Hc), heparinized whole blood (1.0 mL) was taken in a hematocrit tube and centrifuged at 2000 g for 30 min. The Hc for the whole blood was calculated by using Equation (2) [21, 22].

[10] = Dose proportionality PK study, i.p., male SD rats; conditions: male SD rats
Description: as §2, §1, §3

PEGKGEQEHSQQKEEEEEMAV-NH2 [PSTi8]
solubility thermodynamic at 1 h ([1]; simulated gastric fluid (SGF) pH 1.2, 37 °C): 9.3 mg/mL | solubility thermodynamic at 1 h ([1]; simulated intestinal fluid (SIF) pH 7.4, 37 °C): 25.8 mg/mL | stability in rat plasma (in words) (Plasma stability study): high stability; also recorded: stable | remaining at 4 h, 1 µM (Plasma stability study; 1 µM, at 4 h, rat plasma, 37 °C, read-out: plasma stability (% drug remaining)): 88.8 ± 3.39% | remaining at 4 h, 5 µM (Plasma stability study; 5 µM, at 4 h, rat plasma, 37 °C, read-out: plasma stability (% drug remaining)): 90.6 ± 6.65% | stability in rat liver microsomes (in words) ([2]; RLM 0.5 mg/mL, NADPH 1 mM): stable; also recorded: high stability | degradation in negative control experiment ([2]; RLM, without NADPH): no degradation | fraction unbound at 2 µM ([3]; 2 µM): 0.264 | fraction unbound at 5 µM ([3]; 5 µM): 0.307 | fraction unbound ([3]; summary in abstract): < 0.31 | Accuracy (%) of stability sample ([4]; 0 h (for all), nominal 30 ng/mL): 102.34% | Accuracy (%) of stability sample ([4]; 0 h (for all), nominal 400 ng/mL): 101.56% | Accuracy (%) of stability sample ([4]; 0 h (for all), nominal 800 ng/mL): 101.70% | Accuracy (%) of stability sample ([4]; Autosampler (4 °C, 12 h), nominal 30 ng/mL): 112.60% | Accuracy (%) of stability sample ([4]; Autosampler (4 °C, 12 h), nominal 400 ng/mL): 94.13% | Accuracy (%) of stability sample ([4]; Autosampler (4 °C, 12 h), nominal 800 ng/mL): 99.90% | Accuracy (%) of stability sample ([4]; Bench-top (2 h), nominal 30 ng/mL): 96.27% | Accuracy (%) of stability sample ([4]; Bench-top (2 h), nominal 400 ng/mL): 96.17% | Accuracy (%) of stability sample ([4]; Bench-top (2 h), nominal 800 ng/mL): 106.70% | Accuracy (%) of stability sample ([4]; Bench-top (6 h), nominal 30 ng/mL): 103.47% | Accuracy (%) of stability sample ([4]; Bench-top (6 h), nominal 400 ng/mL): 93.00% | Accuracy (%) of stability sample ([4]; Bench-top (6 h), nominal 800 ng/mL): 97.97% | Accuracy (%) of stability sample ([4]; Long term (-80°C, 30 days), nominal 30 ng/mL): 110.13% | Accuracy (%) of stability sample ([4]; Long term (-80°C, 30 days), nominal 400 ng/mL): 102.87% | Accuracy (%) of stability sample ([4]; Long term (-80°C, 30 days), nominal 800 ng/mL): 108.03% | Accuracy (%) of stability sample ([4]; Three freeze-thaw cycles, nominal 30 ng/mL): 101.30% | Accuracy (%) of stability sample ([4]; Three freeze-thaw cycles, nominal 400 ng/mL): 106.30% | Accuracy (%) of stability sample ([4]; Three freeze-thaw cycles, nominal 800 ng/mL): 108.77% | stability in rat plasma with diverse storage conditions (in words) ([4]; storage conditions of Table S2): stable | bioavailability [5]: 52% | CL/F (in vivo [6]; ip): 10.3 mL/min/kg | Vd/F (in vivo [6]; ip): 0.39 ± 0.06 L/kg | CL/F (in vivo [6]; sc): 12.8 mL/min/kg | Vd/F (in vivo [6]; sc): 0.46 ± 0.09 L/kg | CL/F (in vivo [7]; 10 mg/kg): 5.17 mL/min/kg | Vd/F (in vivo [7]; 10 mg/kg): 0.26 ± 0.09 L/kg | CL/F (in vivo [7]; 20 mg/kg): 3.17 mL/min/kg | Vd/F (in vivo [7]; 20 mg/kg): 0.15 ± 0.03 L/kg | CL/F (in vivo [8]): 9.5 mL/min/kg | Vd/F (in vivo [8]): 0.26 ± 0.01 L/kg | toxicity finding (C57Bl/6 mice): safe and non-toxic | RBC:plasma partition coefficient (KRBC/PL) ([9]; 0.206 µM, time not given): 2.46 ± 0.44 | blood–plasma partitioning ([9]; summary in abstract): > 2 | K01 (absorption constant) ([10]; i.p. 10 mg/kg): 4.89 ± 1.74 h⁻¹ | K10 (elimination constant) ([10]; i.p. 10 mg/kg): 1.33 ± 0.60 h⁻¹ | K01 (absorption constant) ([10]; i.p. 20 mg/kg): 4.94 ± 0.97 h⁻¹ | K10 (elimination constant) ([10]; i.p. 20 mg/kg): 1.26 ± 0.18 h⁻¹
